Data reported in EP2545915A1, “2-amino-2-oxoethyl trans-3-[5-(6-methoxy-naphtalen-1-yl)-1,3-dioxan-2-yl]propyl-carbamate for use in the treatment of persistent cancer pain” (SANOFI, priority 2011, dated 2013).
Where two headings read alike, the source gives them in different places.

System: UDP-glucuronosyl transferase
Format: in vitro ADME, human
Details: for % Control (M3G Formation Activity) / % Control (M6G Formation Activity): morphine 2mM, HLM protein 0.5 mg/mL, 30 min
Experimental: Incubations were conducted in 2-mL polypropylene centrifuge tubes. Incubation mixtures containing HLM suspension and alamethicin (25 µg/mL) in 0.1 M potassium phosphate buffer (pH 7.4), were placed on wet ice for 5 min. […] Reactions were initiated by the addition of 50 mM UDPGA spiking solution. […] Samples were incubated aerobically in a water bath at 37 °C for the required amount of time and reactions terminated by the addition of 400 µL of the appropriate quench solution. The 2-mL centrifuge tubes were vortex mixed and stored in a -20 °C freezer for ca. 20 min prior to centrifugation at 13.3 × g, 4 °C for 10 min. Supernatants were analyzed by LC-MS/MS for morphine metabolites formation.
UGT-dependent activities were determined by monitoring the formation of enzyme specific metabolites from marker substrates. […] Incubation with selective inhibitors (positive control) was performed at a concentration above their established IC50 for the confirmation of enzyme activity and inhibitory effects.
Incubations were performed in 2-mL centrifuge tubes. Incubation mixtures containing HLM suspension and alamethicin (25 µg/mL) in 0.1 M potassium phosphate buffer (pH 7.4), were placed on wet ice for 5 min. […] Reactions were initiated by the addition of UDPGA. The final incubation mixture contained 0.5 mg/mL HLM, 2 mM MgCl2, 5 mM UDPGA, various concentration of Compound A or a selective inhibitor. Samples were incubated aerobically in a water bath at 37 °C for 30 min. The incubation systems were terminated by the addition of a 400-µL quenching solution. The 2-mL centrifuge tubes were vortex mixed and stored in a -20 °C freezer for approximately 20 min prior to centrifugation at 13.3 × g, 4 °C for 10 min. Supernatants were analyzed by LC-MS/MS.
Percent of Control = Cmet ÷ Ccontrol × 100%
Cmet: Concentration of the metabolite in the incubations in the presence of Compound A or selective inhibitor
Ccontrol: Concentration of the enzyme-specific metabolite in the incubations in the absence of Compound A and selective inhibitor
The IC50 for Compound A was estimated by non-linear regression analysis of individual sets of percent inhibition values using GraphPad Prism 5.

[1] = positive control incubation, same conditions (2 mM morphine, HLM 0.5 mg/mL, 30 min)

COc1ccc2c(cccc2[C@H]2CO[C@H](CCCNC(=O)OCC(N)=O)OC2)c1 [Compound A, 2-amino-2-oxoethyl trans-3-[5-(6-methoxy-naphtalen-1-yl)-1,3-dioxan-2-yl]propyl-carbamate]
IC50 (2 mM morphine in HLM, Compound A 0.5 to 250 µM, M3G and M6G formation monitored): could not be estimated
% Control (M3G Formation Activity) (Compound A 0.5 µM): 97.7%
% Control (M6G Formation Activity) (Compound A 0.5 µM): 96.9%
% Control (M3G Formation Activity) (Compound A 1.0 µM): 96.2%
% Control (M6G Formation Activity) (Compound A 1.0 µM): 94.4%
% Control (M3G Formation Activity) (Compound A 5.0 µM): 106.0%
% Control (M6G Formation Activity) (Compound A 5.0 µM): 102.4%
% Control (M3G Formation Activity) (Compound A 10 µM): 107.9%
% Control (M6G Formation Activity) (Compound A 10 µM): 110.4%
% Control (M3G Formation Activity) (Compound A 25 µM): 108.3%
% Control (M6G Formation Activity) (Compound A 25 µM): 105.8%
% Control (M3G Formation Activity) (Compound A 50 µM): 105.7%
% Control (M6G Formation Activity) (Compound A 50 µM): 108.3%
% Control (M3G Formation Activity) (Compound A 100 µM): 92.7%
% Control (M6G Formation Activity) (Compound A 100 µM): 97.4%
% Control (M3G Formation Activity) (Compound A 250 µM): 94.2%
% Control (M6G Formation Activity) (Compound A 250 µM): 96.5%
drug interaction with morphine (according to in vitro results): no significant drug interaction
inhibition of morphine metabolism (human liver microsomes, formation of morphine-3-glucuronide and morphine-6-glucuronide monitored): no inhibition

CC(=O)N1CCN(c2ccc(OCC3COC(Cn4ccnc4)(c4ccc(Cl)cc4Cl)O3)cc2)CC1 (stereo not drawn) [ketoconazole, reference compound]
inhibition to M3G activity [1]: ≥ 98.5%
inhibition to M6G activity [1]: ≥ 98.5%
